Test results as given in patent US20240294478A1, “ANTI-CANCER COMPOUNDS AND METHODS OF USE” (YALE UNIVERSITY, priority 2021, published 2024).
Read-outs that look alike come from different tables or passages of the source.

Assays:
[1] = system: four isogenic LN229 glioblastoma cell lines; test: Short-term cell viability assays, statements across the isogenic lines; assay type: cell-based, human; conditions: regardless of MMR status
Method: (§1) LN229 MGMT- and MGMT+ cell lines were a gift from B. Kaina (Johannes Gutenberg University Mainz, Mainz, Germany) and grown in Gibco® Duilbecco's Modified Eagle Medium with 10% fetal bovine serum (DMEM). For each compound tested, the relationship between MGMT status and MMR status and compound activity, in terms of IC50 values ([…]), was determined by the following method. On day 1, LN229 isogenic cells of varying MGMT and MMR status were seeded in 96 well format at a density of 2000 cells/well in 100 μL of DMEM media and allowed to adhere overnight. On day 2, a drug master plate was made with 100×the desired maximal concentration of test compound and serially diluted by 2 until 100×the minimal desired concentration, with one DMSO control. Then daughter plates were created with varied concentrations from 3-times the minimal concentration to 3-times the maximal desired concentration. Afterwards, 50 μL of daughter drug plate was added to 100 μL of the seeded cells for a final concentration of 1×in triplicate. Cells were allowed to grow for 6 days. On day 7, the cells were fixed, and stained with Hoechst nuclear dye and imaged to determine growth inhibition.
(§2) For each compound tested, the relationship between MGMT status and MMR status and compound activity, in terms of IC50 values (in μM), was determined. In addition, for each compound, the therapeutic index (TI) was calculated, according to the equation MGMT TI=IC50 (MGMT+/MMR+) divided by IC50 (MGMT−/MMR+). The T1 indicates the efficacy of a compound in treating the targeted MGMT-cancer cells as compared to potential for the same compound to damage, or have adverse effects against, normal cells which are MGMT+cells, The higher the value of the TI, the safer the compound is. […] MMR RI (resistance index)=IC50 (MGMT−/MMR−) divided by IC50 (MGMT−/MMR+). The higher the value of the RI, the less likely that resistance to the compound will develop.
(§3) Short-term Cell Viability Assay. Cells were seeded in 96-well plates at 1000 or 2000 cells/well and allowed to adhere at 23° C. for 60 min and then incubated overnight at 37° C. Cells were treated with indicated concentrations of compounds in triplicate for 4-6 days prior to fixation with 3.7% paraformaldehyde and nuclear staining with 1 μg/mL Hoechst 33342 dye. Cells were imaged on a Cytation 3 imaging reader (BioTek) and quantified using CellProfiler software. For in vitro short-term growth delay experiments, IC50 values were determined from the nonlinear regression equation, [inhibitor] vs normalized response with variable slope.

LN229 MGMT+/MMR+ cells = test: Short-term cell viability assay, LN229 MGMT+/MMR+; assay type: cell-based; conditions: Homo sapiens, LN-229, 144 h, read-out: IC50 against LN229 cell lines, MGMT+ MMR+
Method: as §1, §2, §3

MGMT− LN229 cells = test: Clonogenic survival assay, LN229 MGMT- cells; assay type: cell-based, human; conditions: at less than 100 μM of E1, regardless of MMR status
Method: (§4) In vitro clonogenic survival assays (CSAs) were performed using four isogenic LN229 glioblastoma cell lines.
(§5) Clonogenic Cell Survival Assay. Cells of each line were pretreated with the test drug in culture for 48-72 hours at the specified dilutions. The cells were then immediately seeded in six-well plates in triplicate at three-fold dilutions, ranging from 9000 to 37 cells per well. Depending on colony size, these plates were kept in the incubator for 10 to 14 days. After incubation, colonies were washed in phosphate-buffered saline (PBS) and stained with crystal violet. Colonies were counted by hand. Counts were normalized to plating efficiency of the corresponding treatment condition.

LN229 MGMT−/MMR− cells = test: Short-term cell viability assay, LN229 MGMT-/MMR- (shRNA targeting MSH2); assay type: cell-based, human; conditions: for IC50: Homo sapiens, LN-229, 144 h, read-out: IC50 against LN229 cell lines, MGMT− MMR−
Method: as §1
For each compound tested, the relationship between MGMT status and MMR status and compound activity, in terms of IC50 values (in μM), was determined. In addition, for each compound, the therapeutic index (TI) was calculated, according to the equation MGMT TI=IC50 (MGMT+/MMR+) divided by IC50 (MGMT−/MMR+). […] MMR RI (resistance index)=IC50 (MGMT−/MMR−) divided by IC50 (MGMT−/MMR+).
as §3, with “Cells were treated with indicated concentrations of compounds in triplicate for 4-6 days prior to fixation with 3.7% paraformaldehyde and nuclear staining with 1 μg/mL Hoechst 33342 dye.” left out

MGMT+ LN229 cells = test: Clonogenic survival assay, LN229 MGMT+ cells; assay type: cell-based, human
Method: as §4, §5

LN229 MGMT−/MMR+ cells = test: Short-term cell viability assay, LN229 MGMT-/MMR+; assay type: cell-based, human; conditions: Homo sapiens, LN-229, 144 h, read-out: IC50 against LN229 cell lines, MGMT− MMR+
Method: as §1, §2, §3

LN229 MGMT+/MMR− cells = test: Short-term cell viability assay, LN229 MGMT+/MMR- (shRNA targeting MSH2); assay type: cell-based; conditions: Homo sapiens, LN-229, 144 h, read-out: IC50 against LN229 cell lines, MGMT+ MMR−
Method: as §1, §2, §3

[2] = system: PD20 cells, deficient in FANCD2 (FANCD2−/−) or complemented with FANCD2; test: Short-term viability assay, PD20 cells; assay type: cell-based, human; conditions: PD20 FANCD2−/− vs +FANCD2
Method: FIGS. 8A-8K. (FIG. 8A) Change in percent cells with 1 micronuclei from baseline (DMSO control) after treatment as in FIGS. 5A and 5C. […] (FIG. 8B) Short-term viability assay curves for KL-50 in PD20 cells, deficient in FANCD2 (FANCD2−/−) or complemented with FANCD2 (+FANCD2). (FIG. 8C) Short-term viability assay curves for KL-50 in PEO4 (BRCA2+) and PEO1 (BRCA2−/−) cells pre-treated with 0.01% DMSO control or 10 μM O^6BG (+O^6BG) for 1 h prior to KL-50 addition. (FIG. 8D) Short-term viability assay curves for KL-50 in DLD1 BRCA2+/− and BRCA2−/−cells pre-treated with 0.01% DMSO control or 10 μM O^6BG (+O^6BG) for 1 h prior to KL-50 addition. For FIGS. 8B-8D, points, mean; error bars, SD; n=3 technical replicates. […] Change in percent cells with 1 micronuclei from baseline (DMSO control) after treatment with olaparib (10 μM) for 48 h in LN229 MGMT+/−, MMR+/−cells. […] Western blot analysis of FANCD2 ubiquitination in LN229 MGMT+/−, MMR+/−cells and PD20 FANCD2-deficient cells, complemented with empty vector (FANCD2+EV), wildtype FANCD2 (PD20+FD2) or ubiquitination-mutant FANCD2 (PD20+KR). The % FANCD2 ubiquitination (% FANCD2 Ub) is quantified as the background-corrected integrated band intensity of the upper band divided by the sum of the background-corrected integrated band intensities of the upper and lower bands. The fold change in % FANCD2 ubiquitination is presented for each cell line relative to DMSO-treated cells. Vinculin serves as loading control. For 8J-8K, points, mean; error bars, SD; n=3 technical replicates.
as §3, with “Cells were treated with indicated concentrations of compounds in triplicate for 4-6 days prior to fixation with 3.7% paraformaldehyde and nuclear staining with 1 μg/mL Hoechst 33342 dye.” left out

[3] = Table 1, 6 days growth, Hoechst nuclear count

With `NC(=O)c1[nH]cnc1/N=N/NCCF` [Compound E1, 5-[(1E)-3-(2-fluoroethyl)triaz-1-en-1-yl]-1H-imidazole-4-carboxamide] the “activity in MGMT+ cells, in words” value [1] was “limited activity”, the IC50 (LN229 MGMT+/MMR+ cells; [3]) was > 100 µM and the “surviving fraction of MGMT− cells” value (MGMT− LN229 cells) was “dropped sharply”. For the same compound, the IC50 (LN229 MGMT−/MMR− cells; Table 1, 6 days growth) was 22 ± 1 µM, the “activity in MGMT−/MMR− cells, in words” value (LN229 MGMT−/MMR− cells; LN229 MGMT−/MMR−) was “exquisite sensitivity” and the “surviving fraction of MGMT+ cells” value (MGMT+ LN229 cells; at concentrations as high as 1000 μM of E1) was “above 0.1”. For the same compound, the “surviving fraction of MGMT+ cells” value (MGMT+ LN229 cells; at the same concentration (less than 100 μM of E1), regardless of MMR status) was ~1.0, the IC50 (LN229 MGMT−/MMR+ cells; Table 1, 6 days growth) was 24 ± 2 µM and the IC50 (LN229 MGMT+/MMR− cells; Table 1, 6 days growth) was > 100 µM.
With `CN(CCF)/N=N/c1nc[nH]c1C(N)=O` [Compound E5, 4-[(1E)-3-(2-fluoroethyl)-3-methyltriaz-1-en-1-yl]-1H-imidazole-5-carboxamide] the IC50 (LN229 MGMT+/MMR+ cells) was > 199 µM, the IC50 (LN229 MGMT−/MMR− cells) was > 100 µM and the IC50 (LN229 MGMT−/MMR+ cells) was 14.2 ± 1 µM. For the same compound, the IC50 (LN229 MGMT+/MMR− cells) was > 100 µM.
With `CO[C@@]12[C@H](COC(N)=O)C3=C(C(=O)C(C)=C(N)C3=O)N1C[C@@H]1N[C@@H]12` [MMC, Mitomycin C] the “sensitivity of FANCD2-deficient cells” value [2] was “hypersensitivity to crosslinking agents in FANCD2−/−cells”.
In the case of `NC(=O)c1nc[nH]c1/N=N/N(CCF)C(=O)Cc1ccccc1` [Compound E2, (E)-5-(3-(2-fluoroethyl)-3-(2-phenylacetyl)triaz-1-en-1-yl)-1H-imidazole-4-carboxamide], the IC50 (LN229 MGMT+/MMR+ cells; [3]) is reported as > 100 µM, the IC50 (LN229 MGMT−/MMR− cells; Table 1, 6 days growth) is reported as 21 ± 1 µM and the IC50 (LN229 MGMT−/MMR+ cells; Table 1, 6 days growth) is reported as 28 ± 1 µM. It also gave an IC50 (LN229 MGMT+/MMR− cells; Table 1, 6 days growth) of 72 ± 30 µM.
